Experimental data reported in ChEMBL document CHEMBL5214923, “Contemporary mTOR inhibitor scaffolds to diseases breakdown: A patent review (2015-2021)” (Eur J Med Chem, 2022).

Columns and labels:
mTORC2 [1] = molecular target: T1, mTORC2 (Homo sapiens, UniProt P42345+Q6R327+Q9BPZ7+Q9BVC4); assay: Inhibition of mTORC2 (unknown origin); type: protein-complex assay
mTORC1 [2] = molecular target: T2, mTORC1 (Homo sapiens, UniProt P42345+Q8N122+Q9BVC4); assay: Inhibition of mTORC1 (unknown origin); type: protein-complex assay
mTORC2 [3] = molecular target: T1, mTORC2; assay: Inhibition of mTORC2 in human MCF7 cells assessed as measuring phosphorylated AKT incubated for 2 hrs by AlphaLISA assay; type: cell-based
mTORC1 [4] = molecular target: T2, mTORC1; assay: Inhibition of mTORC1 in human MCF7 cells assessed as measuring phosphorylated S6K1 incubated for 2 hrs by AlphaLISA assay; type: cell-based

T1 sequence (Q6R327 whole entry, other chains not shown): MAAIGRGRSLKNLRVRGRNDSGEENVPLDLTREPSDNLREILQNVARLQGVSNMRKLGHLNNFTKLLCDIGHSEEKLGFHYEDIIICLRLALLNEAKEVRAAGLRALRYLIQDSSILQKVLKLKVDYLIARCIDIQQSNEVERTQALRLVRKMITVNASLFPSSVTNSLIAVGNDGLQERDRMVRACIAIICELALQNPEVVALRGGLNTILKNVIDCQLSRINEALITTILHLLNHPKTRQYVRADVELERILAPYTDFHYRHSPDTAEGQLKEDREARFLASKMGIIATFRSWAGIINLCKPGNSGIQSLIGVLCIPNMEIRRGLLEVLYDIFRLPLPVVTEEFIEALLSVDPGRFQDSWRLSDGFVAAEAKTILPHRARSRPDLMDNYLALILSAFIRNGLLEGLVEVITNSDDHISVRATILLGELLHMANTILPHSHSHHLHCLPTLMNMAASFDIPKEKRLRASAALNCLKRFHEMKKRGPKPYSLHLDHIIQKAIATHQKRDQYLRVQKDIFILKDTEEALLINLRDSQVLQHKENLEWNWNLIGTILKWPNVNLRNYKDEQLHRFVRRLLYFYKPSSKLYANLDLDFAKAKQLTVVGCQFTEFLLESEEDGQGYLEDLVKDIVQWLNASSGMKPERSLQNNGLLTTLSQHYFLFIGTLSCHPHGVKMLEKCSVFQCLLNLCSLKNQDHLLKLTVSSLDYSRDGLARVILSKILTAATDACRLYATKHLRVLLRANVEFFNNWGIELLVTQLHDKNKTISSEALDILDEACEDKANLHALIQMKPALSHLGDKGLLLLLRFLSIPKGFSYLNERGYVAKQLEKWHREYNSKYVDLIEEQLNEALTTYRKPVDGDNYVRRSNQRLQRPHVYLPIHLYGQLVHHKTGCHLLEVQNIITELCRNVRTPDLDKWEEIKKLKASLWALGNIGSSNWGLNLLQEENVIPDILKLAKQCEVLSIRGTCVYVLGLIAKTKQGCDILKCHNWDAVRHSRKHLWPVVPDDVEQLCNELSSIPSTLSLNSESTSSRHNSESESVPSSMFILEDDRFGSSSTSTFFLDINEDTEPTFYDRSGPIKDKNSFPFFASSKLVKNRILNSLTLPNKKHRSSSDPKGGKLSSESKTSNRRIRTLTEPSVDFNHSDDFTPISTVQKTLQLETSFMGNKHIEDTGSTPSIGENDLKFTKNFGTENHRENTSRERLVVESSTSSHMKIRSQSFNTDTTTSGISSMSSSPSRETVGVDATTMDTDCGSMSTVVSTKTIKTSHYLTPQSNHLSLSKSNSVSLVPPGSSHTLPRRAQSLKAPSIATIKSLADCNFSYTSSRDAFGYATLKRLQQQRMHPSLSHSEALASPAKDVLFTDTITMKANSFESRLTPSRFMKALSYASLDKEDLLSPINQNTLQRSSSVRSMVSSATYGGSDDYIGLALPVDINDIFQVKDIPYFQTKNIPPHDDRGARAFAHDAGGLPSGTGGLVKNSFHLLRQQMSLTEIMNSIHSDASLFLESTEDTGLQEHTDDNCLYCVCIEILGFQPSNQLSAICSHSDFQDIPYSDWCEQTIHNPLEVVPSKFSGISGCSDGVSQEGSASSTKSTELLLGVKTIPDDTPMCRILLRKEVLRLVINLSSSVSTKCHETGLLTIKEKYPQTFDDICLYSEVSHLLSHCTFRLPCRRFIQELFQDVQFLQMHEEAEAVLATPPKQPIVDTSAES
T1 sequence (Q9BPZ7 2-522 limits assumed, other chains not shown): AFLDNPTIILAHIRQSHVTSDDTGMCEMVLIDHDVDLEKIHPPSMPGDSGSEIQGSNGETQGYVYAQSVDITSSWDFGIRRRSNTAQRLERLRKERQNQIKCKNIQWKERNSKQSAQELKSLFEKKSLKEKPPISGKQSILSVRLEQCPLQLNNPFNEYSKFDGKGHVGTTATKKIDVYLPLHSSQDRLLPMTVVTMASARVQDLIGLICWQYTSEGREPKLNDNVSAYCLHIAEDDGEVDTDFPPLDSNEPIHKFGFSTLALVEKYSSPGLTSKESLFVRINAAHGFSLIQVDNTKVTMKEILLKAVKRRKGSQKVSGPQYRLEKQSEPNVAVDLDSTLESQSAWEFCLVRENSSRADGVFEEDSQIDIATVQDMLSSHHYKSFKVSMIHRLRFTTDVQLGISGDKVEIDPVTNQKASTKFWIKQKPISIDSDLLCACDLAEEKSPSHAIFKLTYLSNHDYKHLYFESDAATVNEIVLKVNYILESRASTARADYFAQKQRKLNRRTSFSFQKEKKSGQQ
T1 sequence (Q9BVC4 whole entry, other chains not shown): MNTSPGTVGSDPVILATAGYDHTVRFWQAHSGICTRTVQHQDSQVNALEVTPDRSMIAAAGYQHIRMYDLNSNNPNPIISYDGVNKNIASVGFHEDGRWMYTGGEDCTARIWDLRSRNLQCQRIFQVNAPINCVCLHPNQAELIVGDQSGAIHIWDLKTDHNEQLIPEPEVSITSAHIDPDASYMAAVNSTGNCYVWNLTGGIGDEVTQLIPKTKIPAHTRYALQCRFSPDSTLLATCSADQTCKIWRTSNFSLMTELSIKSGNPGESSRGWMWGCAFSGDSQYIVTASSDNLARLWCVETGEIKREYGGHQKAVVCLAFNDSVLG

Row | IC50 (mTORC2 [1]) [nM] | IC50 (mTORC1 [2]) [nM] | IC50 (mTORC2 [3]) [nM] | IC50 (mTORC1 [4]) [nM] | SMILES
1 | 1260 | 594 |  |  | Nc1ncc(-c2nc(N3CCOCC3)nc3c2C[C@H]2COCCN32)cn1
2 | ≥ 100 | < 0.1 |  |  | CO[C@@H]1C[C@H](C[C@@H](C)[C@@H]2CC(=O)[C@H](C)/C=C(\C)[C@@H](O)[C@@H](OC)C(=O)[C@H](C)C[C@H](C)/C=C/C=C/C=C(\C)[C@@H](OCCSCCSCCO)C[C@@H]3CC[C@@H](C)[C@@](O)(O3)C(=O)C(=O)N3CCCC[C@H]3C(=O)O2)CC[C@H]1O
3 |  |  | > 10000 | 10 | Cn1c(C(=O)N2CCN(c3ccccc3)CC2)cc(CN2CCN(c3ccccc3C#N)CC2)c1C#N
4 | 74 | 68 |  |  | C[C@H]1COCCN1c1nc(-c2cnc(N)cc2C(F)F)nc(N2CCOCC2)n1
5 |  |  | > 10000 | 10 | CNC(=O)c1cc(F)ccc1N1CCN(C(=O)c2cc(NC3CCN(c4ccccc4C#N)CC3)c(C)cc2C)CC1
6 |  |  | > 10000 | 10 | Cc1cc(C)c(C(=O)N2CCN(c3cccc(F)c3[S@](C)(=N)=O)CC2)cc1NC1CCN(c2ccccc2C#N)CC1
7 | ≥ 100 | < 0.1 |  |  | CO[C@@H]1C[C@H](C[C@@H](C)[C@@H]2CC(=O)[C@H](C)/C=C(\C)[C@@H](O)[C@@H](OC)C(=O)[C@H](C)C[C@H](C)/C=C/C=C/C=C(\C)[C@@H](OCCOCCO)C[C@@H]3CC[C@@H](C)[C@@](O)(O3)C(=O)C(=O)N3CCCC[C@H]3C(=O)O2)CC[C@H]1O
8 |  |  | > 10000 | 10 | Cc1cc(C)c(C(=O)N2CCN(c3cccnc3S(N)(=O)=O)CC2)c(C)c1NC1CCN(c2ccccc2C#N)CC1
9 | 54 | 45 |  |  | CC1(C)COCCN1c1nc(-c2cnc(N)cc2C(F)F)nc(N2CCOCC2)n1
10 | 219 | 79 |  |  | Nc1ncc(-c2nc(N3C4CCC3COC4)nc(N3C4COCC3COC4)n2)c(C(F)F)n1
11 | 106 | 47 |  |  | CC1(C)COCCN1c1nc(-c2cnc(N)cc2C(F)F)nc(N2CCOCC2(C)C)n1
12 | 575 | 574 |  |  | Nc1ncc(-c2nc(N3CCOCC3)nc3c2C[C@@H]2COCCN32)cn1
13 | 154 | 98 |  |  | Nc1ncc(-c2nc(N3CCOCC3)c3c(n2)N2CCOC[C@@H]2C3)cn1
14 | ≥ 100 | < 0.1 |  |  | CO[C@@H]1C[C@H](C[C@@H](C)[C@@H]2CC(=O)[C@H](C)/C=C(\C)[C@@H](O)[C@@H](OC)C(=O)[C@H](C)C[C@H](C)/C=C/C=C/C=C(\C)[C@@H](OCC3COCCOCCOCCO3)C[C@@H]3CC[C@@H](C)[C@@](O)(O3)C(=O)C(=O)N3CCCC[C@H]3C(=O)O2)CC[C@H]1O (some centres undefined)
15 |  | 0.05 |  |  | CO[C@H]1C[C@@H]2CC[C@@H](C)[C@@](O)(O2)C(=O)C(=O)N2CCCC[C@H]2C(=O)O[C@H]([C@H](C)C[C@@H]2CC[C@@H](OCCO)[C@H](OC)C2)CC(=O)[C@H](C)/C=C(\C)[C@@H](O)[C@@H](OC)C(=O)[C@H](C)C[C@H](C)/C=C/C=C/C=C/1C [EVEROLIMUS]
16 | 35 | 72 |  |  | C[C@H]1COCCN1c1nc(-c2cnc(N)nc2C(F)F)nc(N2CCOCC2)n1
17 |  |  | > 10000 | 10 | Cc1cc(C)c(C(=O)N2CCN(c3ccccn3)[C@H](CO)C2)cc1NC1CCN(c2ccccc2OC(F)F)CC1
18 | ≥ 100 | < 0.1 |  |  | CO[C@@H]1C[C@H](C[C@@H](C)[C@@H]2CC(=O)[C@H](C)/C=C(\C)[C@@H](O)[C@@H](OC)C(=O)[C@H](C)C[C@H](C)/C=C/C=C/C=C(\C)[C@@H](OCCOCCOCCO)C[C@@H]3CC[C@@H](C)[C@@](O)(O3)C(=O)C(=O)N3CCCC[C@H]3C(=O)O2)CC[C@H]1O
19 | 145 | 65 |  |  | Nc1ncc(-c2nc(N3CCOCC3)c3c(n2)N2CCOC[C@H]2C3)cn1
20 | ≥ 100 | < 0.1 |  |  | CO[C@@H]1C[C@H](C[C@@H](C)[C@@H]2CC(=O)[C@H](C)/C=C(\C)[C@@H](O)[C@@H](OC)C(=O)[C@H](C)C[C@H](C)/C=C/C=C/C=C(\C)[C@@H](OCCOCCOCCOCCOCCOCCOCCOCCO)C[C@@H]3CC[C@@H](C)[C@@](O)(O3)C(=O)C(=O)N3CCCC[C@H]3C(=O)O2)CC[C@H]1O
